Patent US20250163038A1, “CBL-B MODULATORS AND USES THEREOF” (Nimbus Clio, Inc., priority 2021, published 2025)

What was measured:
[1] = target: T1, Recombinant human c-Cbl (aa 47-435) (Homo sapiens, UniProt P22681); assay: c-Cbl Biochemical Assay (TR-FRET); details: hc-Cbl Biochemical Assay (TR-FRET); read-out: TR-FRET hcCbl IC50
T1 sequence (P22681 47-435): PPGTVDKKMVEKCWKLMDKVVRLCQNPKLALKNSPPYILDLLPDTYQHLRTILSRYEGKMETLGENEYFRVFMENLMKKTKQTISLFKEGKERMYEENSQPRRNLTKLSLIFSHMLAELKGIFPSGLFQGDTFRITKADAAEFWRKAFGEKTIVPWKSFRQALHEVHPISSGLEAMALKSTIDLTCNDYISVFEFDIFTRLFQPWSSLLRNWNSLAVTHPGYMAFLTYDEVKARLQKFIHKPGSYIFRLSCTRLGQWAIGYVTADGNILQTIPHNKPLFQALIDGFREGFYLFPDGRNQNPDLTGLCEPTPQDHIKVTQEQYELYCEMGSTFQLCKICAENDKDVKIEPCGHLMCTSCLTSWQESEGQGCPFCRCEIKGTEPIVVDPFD

[2] = system: Jurkat (clone E6-1) cells with NFAT luciferase reporter; assay: Jurkat reporter assay (NFAT Luciferase); format: cell-based; details: Homo sapiens; Jurkat NFAT luciferase reporter cells, anti-CD3 stimulation, 6 hr; read-out: Jurkat NFAT EC50
[3] = target: Recombinant human Cbl-b (aa 36-427) (Homo sapiens, UniProt Q13191); assay: Cbl-b Biochemical Assay (TR-FRET); details: read-out: TR-FRET hCbl-b IC50
Sequence of Recombinant human Cbl-b (aa 36-427) (Q13191 36-427): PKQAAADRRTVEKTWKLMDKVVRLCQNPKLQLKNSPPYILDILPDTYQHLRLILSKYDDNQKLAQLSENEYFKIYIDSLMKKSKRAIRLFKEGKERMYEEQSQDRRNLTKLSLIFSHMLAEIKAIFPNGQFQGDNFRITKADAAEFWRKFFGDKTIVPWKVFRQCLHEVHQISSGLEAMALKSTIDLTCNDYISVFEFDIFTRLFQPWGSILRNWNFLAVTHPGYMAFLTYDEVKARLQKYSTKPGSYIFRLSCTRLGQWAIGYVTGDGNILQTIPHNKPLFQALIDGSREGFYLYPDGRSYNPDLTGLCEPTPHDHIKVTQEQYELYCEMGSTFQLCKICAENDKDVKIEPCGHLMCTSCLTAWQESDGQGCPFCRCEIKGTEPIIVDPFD

IC50 [1] | EC50 [2] | IC50 [3] | Compound
200 to 1000 nM | 1000 to 10000 nM | 200 to 1000 nM | Cn1cnnc1-c1cc(C#N)ccc1-c1cc(-c2nc3cc(CN4C[C@@H]5C[C@H]4CO5)cc(F)c3o2)nc(C2CC2)c1 [AGH-4, 4-(2-Cyclopropyl-6-{7-fluoro-5-[(1S,4S)-2-oxa-5-azabicyclo[2.2.1]heptan-5-ylmethyl]-1,3-benzoxazol-2-yl}pyridin-4-yl)-3-(4-methyl-1,2,4-triazol-3-yl)benzonitrile]
1000 to 10000 nM | 1000 to 10000 nM | 200 to 1000 nM | COC(=O)C1(c2cc(F)c3oc(-c4cc(-c5ccc(F)cc5-c5nncn5C)cc(C5CC5)n4)nc3c2)CC1 [AGM-8, Methyl 1-(2-{6-cyclopropyl-4-[4-fluoro-2-(4-methyl-1,2,4-triazol-3-yl)phenyl]pyridin-2-yl}-7-fluoro-1,3-benzoxazol-5-yl) cyclopropane-1-carboxylate]
200 to 1000 nM | 1000 to 10000 nM | < 200 nM | Cn1cnnc1-c1cc(F)ccc1-c1cc(-c2nc3cc(C4(N)CC4)cc(F)c3o2)nc(C2CC2)c1 [AGN-3, 1-(2-{6-Cyclopropyl-4-[4-fluoro-2-(4-methyl-1,2,4-triazol-3-yl)phenyl]pyridin-2-yl}-7-fluoro-1,3-benzoxazol-5-yl) cyclopropan-1-amine]
< 200 nM | < 200 nM | < 200 nM | Cn1cnnc1-c1cc(F)ccc1-c1cc(-c2nc3cc(CNCC4CCC4)cc(F)c3o2)nc(C2CC2)c1 [AGT-1, (Cyclobutylmethyl)[(2-{6-cyclopropyl-4-[4-fluoro-2-(4-methyl-1,2,4-triazol-3-yl)phenyl]pyridin-2-yl}-7-fluoro-1,3-benzoxazol-5-yl)methyl]amine]
< 200 nM | < 200 nM | < 200 nM | COCCNCc1cc(F)c2oc(-c3cc(-c4ccc(F)cc4-c4nncn4C)cc(C4CC4)n3)nc2c1 [AHB-1, [(2-{6-cyclopropyl-4-[4-fluoro-2-(4-methyl-1,2,4-triazol-3-yl)phenyl]pyridin-2-yl}-7-fluoro-1,3-benzoxazol-5-yl)methyl](2-methoxyethyl)amine]
1000 to 10000 nM | 1000 to 10000 nM | 200 to 1000 nM | COC(=O)c1cc(F)c2oc(-c3cc(-c4ccc(C#N)cc4-c4nncn4C)cc(C4CC4)n3)nc2c1 [AHC-1, methyl 2-{4-[4-cyano-2-(4-methyl-1,2,4-triazol-3-yl)phenyl]-6-cyclopropylpyridin-2-yl}-7-fluoro-1,3-benzoxazole-5-carboxylate]
1000 to 10000 nM | 1000 to 10000 nM | 200 to 1000 nM | Cn1cnnc1-c1cc(C#N)ccc1-c1cc(-c2nc3cc(CO)cc(F)c3o2)nc(C2CC2)c1 [AHD-1, 4-{2-cyclopropyl-6-[7-fluoro-5-(hydroxymethyl)-1,3-benzoxazol-2-yl]pyridin-4-yl}-3-(4-methyl-1,2,4-triazol-3-yl) benzonitrile]

Second part, the compound before the results:

Compound | IC50 [1] | EC50 [2] | IC50 [3]
C[C@H]1CCCN(Cc2cc(F)c3oc(-c4cc(-c5ccc(C#N)cc5-c5nncn5C)cc(C5CC5)n4)nc3c2)C1 [AGI-1, 4-[2-Cyclopropyl-6-(7-fluoro-5-{[(3S)-3-methylpiperidin-1-yl]methyl}-1,3-benzoxazol-2-yl)pyridin-4-yl]-3-(4-methyl-1,2,4-triazol-3-yl)benzonitrile] | < 200 nM | < 200 nM | < 200 nM
COCC(C)(C)NCc1cc(C)c2oc(-c3cc(-c4ccc(F)cc4-c4nncn4C)cc(C4CC4)n3)nc2c1 [AGJ-1, [(2-{6-Cyclopropyl-4-[4-fluoro-2-(4-methyl-1,2,4-triazol-3-yl)phenyl]pyridin-2-yl}-7-methyl-1,3-benzoxazol-5-yl)methyl](1-methoxy-2-methylpropan-2-yl)amine] | 1000 to 10000 nM | 200 to 1000 nM | < 200 nM
COC[C@H](C)NCc1cc(C)c2oc(-c3cc(-c4ccc(F)cc4-c4nncn4C)cc(C4CC4)n3)nc2c1 [AGK-1, [(2-{6-Cyclopropyl-4-[4-fluoro-2-(4-methyl-1,2,4-triazol-3-yl)phenyl]pyridin-2-yl}-7-methyl-1,3-benzoxazol-5-yl)methyl][(2S)-1-methoxypropan-2-yl]amine] | < 200 nM | < 200 nM | < 200 nM
COC[C@@H](C)NCc1cc(C)c2oc(-c3cc(-c4ccc(F)cc4-c4nncn4C)cc(C4CC4)n3)nc2c1 [AGL-1, [(2-{6-Cyclopropyl-4-[4-fluoro-2-(4-methyl-1,2,4-triazol-3-yl)phenyl]pyridin-2-yl}-7-methyl-1,3-benzoxazol-5-yl)methyl][(2R)-1-methoxypropan-2-yl]amine] | 200 to 1000 nM | 200 to 1000 nM | < 200 nM
COC1(CNC2(c3cc(F)c4oc(-c5cc(-c6ccc(F)cc6-c6nncn6C)cc(C6CC6)n5)nc4c3)CC2)CCC1 [AGO-2, 1-(2-{6-Cyclopropyl-4-[4-fluoro-2-(4-methyl-1,2,4-triazol-3-yl)phenyl]pyridin-2-yl}-7-fluoro-1,3-benzoxazol-5-yl)-N-[(1-methoxycyclobutyl)methyl]cyclopropan-1-amine] | 200 to 1000 nM | 200 to 1000 nM | < 200 nM
Cc1c(F)c(CO)cc2nc(-c3cc(-c4ccc(F)cc4-c4nncn4C)cc(C4CC4)n3)oc12 [AGP-7, (2-{6-Cyclopropyl-4-[4-fluoro-2-(4-methyl-1,2,4-triazol-3-yl)phenyl]pyridin-2-yl}-6-fluoro-7-methyl-1,3-benzoxazol-5-yl)methanol] | 1000 to 10000 nM | 1000 to 10000 nM | 200 to 1000 nM
Cc1c(F)c(CN[C@@H]2CCC[C@@H]2O)cc2nc(-c3cc(-c4ccc(F)cc4-c4nncn4C)cc(C4CC4)n3)oc12 [AGQ-2, (1S,2R)-2-{[(2-{6-Cyclopropyl-4-[4-fluoro-2-(4-methyl-1,2,4-triazol-3-yl)phenyl]pyridin-2-yl}-6-fluoro-7-methyl-1,3-benzoxazol-5-yl)methyl]amino}cyclopentan-1-ol] | < 200 nM | < 200 nM | < 200 nM
Cc1cc(C(C)(C)N)cc2nc(-c3cc(-c4ccc(F)cc4-c4nncn4C)cc(C4CC4)n3)oc12 [AGR-9, 2-(2-{6-Cyclopropyl-4-[4-fluoro-2-(4-methyl-1,2,4-triazol-3-yl)phenyl]pyridin-2-yl}-7-methyl-1,3-benzoxazol-5-yl)propan-2-amine] | 1000 to 10000 nM | 1000 to 10000 nM | 200 to 1000 nM
COC[C@H](C)NCc1cc(C)c2oc(-c3cccc(-c4ccc(F)cc4-c4nncn4C)c3)nc2c1 [AGS-4, ({2-[4′-Fluoro-2′-(4-methyl-1,2,4-triazol-3-yl)-[1,1′-biphenyl]-3-yl]-7-methyl-1,3-benzoxazol-5-yl}methyl)[(2S)-1-methoxypropan-2-yl]amine] | < 200 nM | < 200 nM | < 200 nM
Cc1cc(C(C)NCC2CCC2)cc2nc(-c3cc(-c4ccc(F)cc4-c4nncn4C)cc(C4CC4)n3)oc12 (stereo not drawn) [AGU-1, (cyclobutylmethyl)[1-(2-{6-cyclopropyl-4-[4-fluoro-2-(4-methyl-1,2,4-triazol-3-yl)phenyl]pyridin-2-yl}-7-methyl-1,3-benzoxazol-5-yl)ethyl]amine] | < 200 nM | < 200 nM | < 200 nM
Cc1cc([C@H](C)NCC2CCC2)cc2nc(-c3cc(-c4ccc(F)cc4-c4nncn4C)cc(C4CC4)n3)oc12 [AGX-1, (cyclobutylmethyl)[(1S)-1-(2-{6-cyclopropyl-4-[4-fluoro-2-(4-methyl-1,2,4-triazol-3-yl)phenyl]pyridin-2-yl}-7-methyl-1,3-benzoxazol-5-yl)ethyl]amine] | < 200 nM | < 200 nM | < 200 nM
Cc1cc([C@@H](C)NCC2CCC2)cc2nc(-c3cc(-c4ccc(F)cc4-c4nncn4C)cc(C4CC4)n3)oc12 [AGY-1, (cyclobutylmethyl)[(1R)-1-(2-{6-cyclopropyl-4-[4-fluoro-2-(4-methyl-1,2,4-triazol-3-yl)phenyl]pyridin-2-yl}-7-methyl-1,3-benzoxazol-5-yl)ethyl]amine] | < 200 nM | < 200 nM | < 200 nM
CCNCc1cc2nc(-c3cc(-c4ccc(F)cc4-c4nncn4C)cc(C4CC4)n3)oc2c(F)c1F [AGZ-2, [(2-{6-cyclopropyl-4-[4-fluoro-2-(4-methyl-1,2,4-triazol-3-yl)phenyl]pyridin-2-yl}-6,7-difluoro-1,3-benzoxazol-5-yl)methyl](ethyl)amine] | 200 to 1000 nM | 200 to 1000 nM | < 200 nM
Cn1cnnc1-c1cc(F)ccc1-c1cccc(-c2nc3cc(CNCC4(O)CC4)cc(C(F)(F)F)c3o2)c1 [AH-2, 1-((((2-(4′-Fluoro-2′-(4-methyl-4H-1,2,4-triazol-3-yl)-[1,1′-biphenyl]-3-yl)-7-(trifluoromethyl)benzo[d]oxazol-5-yl)methyl)amino)methyl)cyclopropan-1-ol] | 1000 to 10000 nM | 200 to 1000 nM | < 200 nM
CNCc1cc2nc(-c3cc(-c4ccc(F)cc4-c4nncn4C)cc(C4CC4)n3)oc2c(F)c1F [AHA-2, [(2-{6-cyclopropyl-4-[4-fluoro-2-(4-methyl-1,2,4-triazol-3-yl)phenyl]pyridin-2-yl}-6,7-difluoro-1,3-benzoxazol-5-yl)methyl](methyl)amine] | 200 to 1000 nM | 1000 to 10000 nM | < 200 nM
